# Counter-ions that a name gives are not always drawn.
# Target: Human D1 Receptor (Homo sapiens (Human), UniProt P21728)
# Assay: Human D1 Receptor Binding Assay ([3H]-SCH23390 competition)
# Conditions: competition with 0.5 nM [3H]-SCH23390, over-expressing LTK human cell lines, 30 min at 37° C.; values marked ^a are from a single determination; read-out: Human D1 Receptor Binding, Ki (nM); Geometric mean of 2-4 determinations (unless otherwise indicated)
# Description: D1 binding assays were performed using over-expressing LTK human cell lines. […] These ligand and tissue concentrations were used in time course studies to determine linearity and equilibrium conditions for binding. […] The pellet was resuspended in assay buffer [50 mM Tris (pH 7.4@ RT) containing 4 mM MgSO4 and 0.5 mM EDTA]. […] Non-specific binding was determined by radioligand binding in the presence of a saturating concentration of (+)-Butaclamol (10 μM), a D1 antagonist. After a 30 minute incubation period at 37° C., assay samples were rapidly filtered through Unifilter-96 GF/B PEI-coated filter plates and rinsed with 50 mM Tris buffer (pH 7.4 at 4° C.). […] Ki values were calculated according to the Cheng-Prusoff equation: […]
# Sequence of Human D1 Receptor (P21728 whole entry): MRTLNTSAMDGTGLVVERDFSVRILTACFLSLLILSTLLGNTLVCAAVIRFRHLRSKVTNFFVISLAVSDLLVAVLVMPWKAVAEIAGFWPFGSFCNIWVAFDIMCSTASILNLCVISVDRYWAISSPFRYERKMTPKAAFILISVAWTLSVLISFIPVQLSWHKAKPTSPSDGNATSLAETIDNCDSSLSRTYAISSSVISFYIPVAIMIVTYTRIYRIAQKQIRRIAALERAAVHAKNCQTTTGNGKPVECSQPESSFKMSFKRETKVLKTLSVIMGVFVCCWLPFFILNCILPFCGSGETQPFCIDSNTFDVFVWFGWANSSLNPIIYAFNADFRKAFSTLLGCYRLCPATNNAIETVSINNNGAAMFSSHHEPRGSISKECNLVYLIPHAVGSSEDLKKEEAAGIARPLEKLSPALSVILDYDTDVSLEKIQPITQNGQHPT
row,Ki,Compound
1,30.7 nM,"Cc1cc(Oc2ncnc3occc23)ccc1-c1c(C)n[nH]c(=O)c1C (single isomer, unassigned) [Example 7, (+)-5-[4-(furo[2,3-d]pyrimidin-4-yloxy)-2-methylphenyl]-4,6-dimethylpyridazin-3(2H)-one]"
2,280 nM,"Cc1c(-c2ccc(Oc3nccc4onc(C)c34)cc2)n(C)c(=O)[nH]c1=O [Example 15, 1,5-dimethyl-6-{4-[(3-methyl[1,2]oxazolo[4,5-c]pyridin-4-yl)oxy]phenyl}pyrimidine-2,4(1H,3H)-dione]"
3,179 nM,"CCn1c(-c2ccc(Oc3ncnc4occc34)cc2)c(C)c(=O)[nH]c1=O [Example 20, 1-ethyl-6-[4-(furo[2,3-d]pyrimidin-4-yloxy)phenyl]-5-methylpyrimidine-2,4(1H,3H)-dione]"
4,900 nM,"COCCn1c(-c2ccc(Oc3ncnc4occc34)cc2)c(C)c(=O)[nH]c1=O [Example 19, 6-[4-(furo[2,3-d]pyrimidin-4-yloxy)phenyl]-1-(2-methoxyethyl)-5-methylpyrimidine-2,4(1H,3H)-dione]"
5,1730 nM,"Cc1cc(Oc2nccc3onc(C)c23)ccc1-c1c(C)ncc(=O)n1C [Example 17, 1,5-dimethyl-6-{2-methyl-4-[(3-methyl[1,2]oxazolo[4,5-c]pyridin-4-yl)oxy]phenyl}pyrazin-2(1H)-one, trifluoroacetic acid salt]"
6,40.2 nM,"Cc1cc(Oc2ncnc3occc23)ccc1-c1c(C)n[nH]c(=O)c1C (single isomer, unassigned) [Example 8, (−)-5-[4-(furo[2,3-d]pyrimidin-4-yloxy)-2-methylphenyl]-4,6-dimethylpyridazin-3(2H)-one]"
7,367 nM,"Cc1cc(Oc2nccc3[nH]cnc23)ccc1-c1c(C)ncnc1C#N [Example 12, 5-[4-(1H-imidazo[4,5-c]pyridin-4-yloxy)-2-methylphenyl]-6-methylpyrimidine-4-carbonitrile]"
8,274 nM,"CCc1c(-c2ccc(Oc3ncnc4occc34)cc2)n(C)c(=O)[nH]c1=O [Example 18, 5-ethyl-6-[4-(furo[2,3-d]pyrimidin-4-yloxy)phenyl]-1-methylpyrimidine-2,4(1H,3H)-dione]"
9,142 nM,"CCc1c(-c2ccc(Oc3ncnc4occc34)cc2)n(C2CC2)c(=O)[nH]c1=O [Example 22, 1-cyclopropyl-5-ethyl-6-[4-(furo[2,3-d]pyrimidin-4-yloxy)phenyl]pyrimidine-2,4(1H,3H)-dione]"
10,326 nM,"Cc1cc(Oc2nccc3onc(C)c23)ccc1-c1c(C)n[nH]c(=O)c1C [Example 16, 4,6-dimethyl-5-{2-methyl-4-[(3-methyl[1,2]oxazolo[4,5-c]pyridin-4-yl)oxy]phenyl}pyridazin-3(2H)-one, trifluoroacetic acid salt]"
11,309 nM,"CCc1c(-c2ccc(Oc3ncnc4occc34)cc2)n(CC)c(=O)[nH]c1=O [Example 23, 1,5-diethyl-6-[4-(furo[2,3-d]pyrimidin-4-yloxy)phenyl]pyrimidine-2,4(1H,3H)-dione]"
12,196 nM,"Cc1cc(Oc2ncnc3occc23)ccc1-c1c(C)ncc(=O)n1C [Example 3, 6-[4-(furo[2,3-d]pyrimidin-4-yloxy)-2-methylphenyl]-1,5-dimethylpyrazin-2(1H)-one]"
13,142 nM,"Cc1c(-c2ccc(Oc3ncnc4occc34)cc2)n(C)c(=O)[nH]c1=O [Example 9, 6-[4-(furo[2,3-d]pyrimidin-4-yloxy)phenyl]-1,5-dimethylpyrimidine-2,4(1H,3H)-dione]"
14,127 nM,"Cc1cc(Oc2ncnc3occc23)ccc1-c1c(C)ncc(=O)n1C (single isomer, unassigned) [Example 4, (−)-6-[4-(furo[2,3-d]pyrimidin-4-yloxy)-2-methylphenyl]-1,5-dimethylpyrazin-2(1H)-one]"
15,44.7 nM,"Cc1cc(Oc2ncnc3occc23)ccc1-c1c(C)n[nH]c(=O)c1C [Example 6, 5-[4-(furo[2,3-d]pyrimidin-4-yloxy)-2-methylphenyl]-4,6-dimethylpyridazin-3(2H)-one]"
16,400 nM,"Cc1cc(Oc2ncnc3occc23)ccc1-c1c(C)ncc(=O)n1C (single isomer, unassigned) [Example 5, (+)-6-[4-(furo[2,3-d]pyrimidin-4-yloxy)-2-methylphenyl]-1,5-dimethylpyrazin-2(1H)-one]"
17,122 nM,"Cc1c(-c2ccc(Oc3ncnc4occc34)cc2)n(C2CC2)c(=O)[nH]c1=O [Example 21, 1-cyclopropyl-6-[4-(furo[2,3-d]pyrimidin-4-yloxy)phenyl]-5-methylpyrimidine-2,4(1H,3H)-dione]"
18,70.3 nM,"Cc1n[nH]c(=O)c(C)c1-c1ccc(Oc2ncnc3occc23)cc1 [Example 13, 5-[4-(furo[2,3-d]pyrimidin-4-yloxy)phenyl]-4,6-dimethylpyridazin-3(2H)-one]"
19,372 nM,"Cc1cc(Oc2ncnc3occc23)ccc1-c1cn[nH]c(=O)c1C [Example 14, 5-[4-(furo[2,3-d]pyrimidin-4-yloxy)-2-methylphenyl]-4-methylpyridazin-3(2H)-one]"

# From patent US10077272B2, “Heteroaromatic compounds and their use as dopamine D1 ligands” (PFIZER INC., priority 2014, dated 2018)
